Laboratory results as given in patent publication US4447422A, “Penicillins and compositions containing them” (Beecham Group p.1.c., priority 1981, dated 1984).
Converted amounts (≈) assume the structure as drawn. Structures can show the parent of a compound that is named as a salt. Where two headings read alike, the source gives them in different places.

What was measured:
Test in all cases: antibacterial activity (MIC)
Format in all cases: cell-based
[1] = system: P rettgeri; conditions: Table 1
[2] = system: B subtilis; conditions: Table 1
[3] = system: E coli JT425; conditions: Table 1
[4] = system: N catarrhalis 1502; conditions: Table 1
[5] = system: E coli ESS; conditions: Table 1
[6] = system: Staph aureus Oxford
[7] = system: E coli JT4; conditions: Table 1
[8] = system: P morganii; conditions: Table 1
[9] = system: Ps aeruginosa 10662; conditions: Table 1
[10] = system: P mirabilis C977; conditions: Table 1
[11] = system: Step faecalis I; conditions: Table 1
[12] = system: Ps aeruginosa Dalgleish; conditions: Table 1; Ps aeruginosa Dalgleish 10^-2
[13] = system: Staph aureus Russell; conditions: Staphylococcus aureus, Table 1
[14] = system: Serratia marcescens US32; conditions: Table 1
[15] = system: P mirabilis 889; conditions: Table 1
[16] = system: Klebsiella aerogenes A; conditions: Table 1
[17] = system: Enterobacter cloacae N1; conditions: Table 1
[18] = system: E coli NCTC 10418
[19] = system: β-Haemolytic Strep CN10; conditions: Table 1
[20] = Staphylococcus aureus, Table 1, Staph aureus Oxford, read-out: MIC
[21] = Table 2, gram positive organism Staph. aureus Oxford
[22] = Escherichia coli, NCTC10418, Table 2, gram negative organism E. coli NCTC 10418

SMILES | MIC [1] | MIC [2] | MIC [3] | MIC [4] | MIC [5] | MIC [6, 20] | MIC [6, 21] | MIC [7] | MIC [8] | MIC ([9]; Ps aeruginosa 10662) | MIC [10] | MIC [11] | MIC [12] | MIC [13] | MIC [14] | MIC [15] | MIC [16] | MIC [17] | MIC [18, 22] | MIC ([18]; Table 1, E coli NCTC 10418) | further results
CC1(C)S[C@@H]2[C@H](NC(=O)[C@H](NC(=O)c3cnc(NCc4ccccc4)nc3O)c3ccccc3)C(=O)N2[C@H]1C(=O)O [Example 1, 6β-[D-2-(2-benzylamino-4-hydroxypyrimidine-5-carbonylamino)-2-phenyl]acetamido penicillanic acid] | 10 µg/mL (≈ 17.3 µM) | 2.5 µg/mL (≈ 4.34 µM) | 25 µg/mL (≈ 43.4 µM) | < 0.02 µg/mL | < 0.02 µg/mL | 0.5 µg/mL (≈ 0.867 µM) | 0.5 µg/mL (≈ 0.867 µM) | > 100 µg/mL | 50 µg/mL (≈ 86.7 µM) | 5 µg/mL (≈ 8.67 µM) | 2.5 µg/mL (≈ 4.34 µM) | 5 µg/mL (≈ 8.67 µM) | 50 µg/mL (≈ 86.7 µM) | 50 µg/mL (≈ 86.7 µM) | 10 µg/mL (≈ 17.3 µM) | > 100 µg/mL | 50 µg/mL (≈ 86.7 µM) | 10 µg/mL (≈ 17.3 µM) | 2.5 µg/mL (≈ 4.34 µM) | 2.5 µg/mL (≈ 4.34 µM) | MIC ([9]; Ps aeruginosa 10662 10^-2): 2.5 µg/mL (≈ 4.34 µM); MIC [19]: < 0.02 µg/mL
CCCCNc1ncc(C(=O)N[C@@H](C(=O)N[C@@H]2C(=O)N3[C@@H]2SC(C)(C)[C@@H]3C(=O)O)c2ccccc2)c(O)n1 [Example 16, 6β-[D-2-(2-n-Butylamino-4-hydroxypyrimidine-5-carbonylamino)-2-phenyl] acetamido penicillanic acid, disodium salt] | 5 µg/mL | 1.2 µg/mL | 50 µg/mL | 0.02 µg/mL | 0.02 µg/mL | 1.2 µg/mL | 1.2 µg/mL | > 500 µg/mL | 5 µg/mL | 5 µg/mL | 2.5 µg/mL | 5 µg/mL | 125 µg/mL | 125 µg/mL | 12.5 µg/mL | > 500 µg/mL | 12.5 µg/mL | 5 µg/mL | 1.2 µg/mL | 1.5 µg/mL | MIC [19]: 0.02 µg/mL
CCSCCNc1ncc(C(=O)N[C@@H](C(=O)N[C@@H]2C(=O)N3[C@@H]2SC(C)(C)[C@@H]3C(=O)O)c2ccccc2)c(O)n1 [Example 2, 6β-[D-2-(2-[2-Ethylthioethyl-1-amino]-4-hydroxypyrimidine-5-carbonylamino)-2-phenyl]acetamido penicillanic acid] | 12.5 µg/mL (≈ 21.8 µM) | 1.25 µg/mL (≈ 2.18 µM) | 50 µg/mL (≈ 87 µM) | < 0.01 µg/mL | < 0.01 µg/mL | 1.25 µg/mL (≈ 2.18 µM) | 1.25 µg/mL (≈ 2.18 µM) | > 500 µg/mL | 25 µg/mL (≈ 43.5 µM) | 5 µg/mL (≈ 8.7 µM) | 2.5 µg/mL (≈ 4.35 µM) | 5 µg/mL (≈ 8.7 µM) | 125 µg/mL (≈ 218 µM) | 125 µg/mL (≈ 218 µM) | 12.5 µg/mL (≈ 21.8 µM) | > 500 µg/mL | 12.5 µg/mL (≈ 21.8 µM) | 12.5 µg/mL (≈ 21.8 µM) | 2.5 µg/mL (≈ 4.35 µM) | 2.5 µg/mL (≈ 4.35 µM) | MIC ([9]; Ps aeruginosa 10662 10^-2): 2.5 µg/mL (≈ 4.35 µM); MIC [19]: < 0.01 µg/mL
